Where a name gives a salt, the structure may show the parent alone.
Assays:
[1] = target: T1, fluo-Aβ1-40 (Homo sapiens, UniProt P05067); assay: Aβ Aggregation Assay (Synthaloid plates, fluo-Aβ1-40); assay type: biochemical; conditions: 10 μM test compound, 100 nM fluo-Aβ1-40, 2.5 hr at room temperature; higher % = greater effectiveness at preventing aggregation
T1 construct: added 100 nM of fluo-Aβ1-40 in 100 μl
Protocol: Aβs are known to form aggregates leading to the formation of amyloid plaques that are characteristic of Alzheimer's disease.
This aggregation assay was validated using both ^125I-Aβ1-40 and fluo-Aβ1-40 in a buffer containing 50 mM HEPES, pH 7.4, 0.1% BSA, 10% FCS and protease inhibitors.
To each well of a 96-well Synthaloid plate was added 100 nM of fluo-Aβ1-40 in 100 μl. To each well was then added 10 μM of test compound. The plate was then allowed to incubate for 2.5 hr at room temperature. At the end of the incubation, unbound protein in the wells was removed by three washes using the buffer as described above. The amount of bound protein (which represents the amount of Aβ aggregation) was measured either by fluorescence measurements.
Higher fluorescence values relative to vehicle wells were interpreted as an indication of greater Aβ aggregation. […] Higher % values in the data in Table 4 below, below indicates greater effectiveness at preventing aggregation.
(§1) Both the Aβ aggregation assay as described in Example 55, particularly as run using the ^125I-Aβ1-40, and the % inhibition of AcH release assay as described in Example 56, were highly variable on a run-to-run basis. However, the relative activities of the tested compounds were reproducible.

[2] = test system: Synaptosomes from guinea pig hippocampus; assay: % Inhibition of AcH Release Assay (K+-evoked 3H-acetylcholine release); assay type: cell-based; conditions: synaptosomes pre-treated with 10 μM test compound prior to 65 mM K+ stimulation
Protocol: Synaptosomes from guinea pig hippocampus were incubated with 0.1 μM ^3H-choline and then subjected to repeated washes with buffer to remove unincorporated ^3H-choline. The synaptosomes were then treated with 65 mM K^+ for 30 seconds to elicit 3H-acetylcholine release.
To determine if a test compound will inhibit acetylcholine release, the synaptosomes were pre-treated with 10 μM of the test compound prior to the K+ stimulation. The decrease or increase in acetylcholine release was then measured by superfusion.
as §1

T1 sequence (P05067 672-711): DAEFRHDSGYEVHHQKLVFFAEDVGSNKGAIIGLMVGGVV

O=C1OC2(CN3CCC2CC3)C(=O)N1c1cccc(C(F)(F)F)c1 (stereo not shown) [Compound 1, 3′-(3-trifluoromethylphenyl)-quinuclidine-3-spiro-5′-oxazolidine-2′,4′-dione trifluoroacetate salt]
Aβ aggregation inhibition (%) [1]: 100% | Inhibition of acetylcholine release [2]: 36%

Cc1ccc(N2C(=O)OC3(CN4CCC3CC4)C2=O)cc1 (stereo not shown) [Compound 2, 3′-(4-methylphenyl)-quinuclidine-3-spiro-5′-oxazolidine-2′,4′-dione trifluoroacetate salt]
Aβ aggregation inhibition (%) [1]: 44% | Inhibition of acetylcholine release [2]: 74%

COc1ccc(N2C(=O)OC3(CN4CCC3CC4)C2=O)cc1 (stereo not shown) [Compound 3, 3′-(4-methoxyphenyl)-quinuclidine-3-spiro-5′-oxazolidine-2′,4′-dione trifluoroacetate salt]
Aβ aggregation inhibition (%) [1]: 100% | Inhibition of acetylcholine release [2]: 27%

COc1ccc(N2C(=O)OC3(CN4CCC3CC4)C2=O)c(C)c1 (stereo not shown) [Compound 4, 3′-(4-methoxy-2-methylphenyl)-quinuclidine-3-spiro-5′-oxazolidine-2′,4′-dione trifluoroacetate salt]
Aβ aggregation inhibition (%) [1]: 95% | Inhibition of acetylcholine release [2]: 36%

O=C1OC2(CN3CCC2CC3)C(=O)N1c1ccc(Cl)c(Cl)c1 (stereo not shown) [Compound 5, 3′-(3,4-dichlorophenyl)-quinuclidine-3-spiro-5′-oxazolidine-2′,4′-dione trifluoroacetate salt]
Aβ aggregation inhibition (%) [1]: 98% | Inhibition of acetylcholine release [2]: 27%

O=C1OC2(CN3CCC2CC3)C(=O)N1c1cccc([N+](=O)[O-])c1 (stereo not shown) [Compound 6, 3′-(3-nitrophenyl)-quinuclidine-3-spiro-5′-oxazolidine-2′,4′-dione trifluoroacetate salt]
Aβ aggregation inhibition (%) [1]: 21% | Inhibition of acetylcholine release [2]: 64%

O=C1OC2(CN3CCC2CC3)C(=O)N1c1cc(Cl)cc(Cl)c1 (stereo not shown) [Compound 7, 3′-(3,5-dichlorophenyl)-quinuclidine-3-spiro-5′-oxazolidine-2′,4′-dione trifluoroacetate salt]
Aβ aggregation inhibition (%) [1]: 62% | Inhibition of acetylcholine release [2]: 70%

O=C1OC2(CN3CCC2CC3)C(=O)N1c1cc(C(F)(F)F)cc(C(F)(F)F)c1 (stereo not shown) [Compound 8, 3′-(3,5-bis(trifluoromethyl)phenyl)-quinuclidine-3-spiro-5′-oxazolidine-2′,4′-dione trifluoroacetate salt]
Aβ aggregation inhibition (%) [1]: 0% | Inhibition of acetylcholine release [2]: 77%

O=C1OC2(CN3CCC2CC3)C(=O)N1c1ccccc1F (stereo not shown) [Compound 9, 3′-(2-fluorophenyl)-quinuclidine-3-spiro-5′-oxazolidine-2′,4′-dione trifluoroacetate salt]
Aβ aggregation inhibition (%) [1]: 100% | Inhibition of acetylcholine release [2]: 16%

O=C1OC2(CN3CCC2CC3)C(=O)N1c1cccc(Cl)c1 (stereo not shown) [Compound 10, 3′-(3-chlorophenyl)-quinuclidine-3-spiro-5′-oxazolidine-2′,4′-dione trifluoroacetate salt]
Aβ aggregation inhibition (%) [1]: 50% | Inhibition of acetylcholine release [2]: 60%

Cc1ccc(C)c(N2C(=O)OC3(CN4CCC3CC4)C2=O)c1 (stereo not shown) [Compound 11, 3′-(2,5-dimethyphenyl)-quinuclidine-3-spiro-5′-oxazolidine-2′,4′-dione trifluoroacetate salt]
Aβ aggregation inhibition (%) [1]: 0% | Inhibition of acetylcholine release [2]: 71%

O=C1OC2(CN3CCC2CC3)C(=O)N1c1cc(Cl)ccc1Cl (stereo not shown) [Compound 12, 3′-(2,5-dichlorophenyl)-quinuclidine-3-spiro-5′-oxazolidine-2′,4′-dione trifluoroacetate salt]
Aβ aggregation inhibition (%) [1]: 85% | Inhibition of acetylcholine release [2]: 17%

CCOC(=O)c1cccc(N2C(=O)OC3(CN4CCC3CC4)C2=O)c1 (stereo not shown) [Compound 13, 3′-(3-ethoxycarbonylphenyl)-quinuclidine-3-spiro-5′-oxazolidine-2′,4′-dione trifluoroacetate salt]
Aβ aggregation inhibition (%) [1]: 100% | Inhibition of acetylcholine release [2]: 20%

COc1cccc(N2C(=O)OC3(CN4CCC3CC4)C2=O)c1 (stereo not shown) [Compound 14, 3′-(3-methoxyphenyl)-quinuclidine-3-spiro-5′-oxazolidine-2′,4′-dione trifluoroacetate salt]
Aβ aggregation inhibition (%) [1]: 42% | Inhibition of acetylcholine release [2]: 14%

O=C1OC2(CN3CCC2CC3)C(=O)N1c1cccc(O)c1 (stereo not shown) [Compound 15, 3′-(3-hydroxyphenyl)-quinuclidine-3-spiro-5′-oxazolidine-2′,4′-dione trifluoroacetate salt]
Aβ aggregation inhibition (%) [1]: 50% | Inhibition of acetylcholine release [2]: 55%

Cc1ccc(N2C(=O)OC3(CN4CCC3CC4)C2=O)cc1C (stereo not shown) [Compound 16, 3′-(3,4-dimethylphenyl)-quinuclidine-3-spiro-5′-oxazolidine-2′,4′-dione trifluoroacetate salt]
Aβ aggregation inhibition (%) [1]: 67% | Inhibition of acetylcholine release [2]: 44%

O=C1OC2(CN3CCC2CC3)C(=O)N1c1ccc(O)cc1 (stereo not shown) [Compound 18, 3′-(4-hydroxyphenyl)-quinuclidine-3-spiro-5′-oxazolidine-2′,4′-dione trifluoroacetate salt]
Aβ aggregation inhibition (%) [1]: 0% | Inhibition of acetylcholine release [2]: 23%

Cc1cc(O)ccc1N1C(=O)OC2(CN3CCC2CC3)C1=O (stereo not shown) [Compound 19, 3′-(4-hydroxy-2-methylphenyl)-quinuclidine-3-spiro-5′-oxazolidine-2′,4′-dione trifluoroacetate salt]
Aβ aggregation inhibition (%) [1]: 0% | Inhibition of acetylcholine release [2]: 27%

Cc1cc(C)cc(N2C(=O)OC3(CN4CCC3CC4)C2=O)c1 (stereo not shown) [Compound 20, 3′-(3,5-dimethylphenyl)-quinuclidine-3-spiro-5′-oxazolidine-2′,4′-dione trifluoroacetate salt]
Aβ aggregation inhibition (%) [1]: 0% | Inhibition of acetylcholine release [2]: 53%

O=C1OC2(CN3CCC2CC3)C(=O)N1c1ccc(F)cc1F (stereo not shown) [Compound 21, 3′-(2,4-difluorophenyl)-quinuclidine-3-spiro-5′-oxazolidine-2′,4′-dione trifluoroacetate salt]
Aβ aggregation inhibition (%) [1]: 1% | Inhibition of acetylcholine release [2]: 17%

Cc1ccc(N2C(=O)OC3(CN4CCC3CC4)C2=O)cc1Cl (stereo not shown) [Compound 24, 3′-(3-chloro-4-methylphenyl)-quinuclidine-3-spiro-5′-oxazolidine-2′,4′-dione trifluoroacetate salt]
Aβ aggregation inhibition (%) [1]: 40% | Inhibition of acetylcholine release [2]: 44%

O=C1OC2(CN3CCC2CC3)C(=O)N1c1cccc(F)c1 (stereo not shown) [Compound 25, 3′-(3-fluorophenyl)-quinuclidine-3-spiro-5′-oxazolidine-2′,4′-dione trifluoroacetate salt]
Aβ aggregation inhibition (%) [1]: 5% | Inhibition of acetylcholine release [2]: 48%

Cc1ccccc1N1C(=O)OC2(CN3CCC2CC3)C1=O (stereo not shown) [Compound 26, 3′-(2-methylphenyl)-quinuclidine-3-spiro-5′-oxazolidine-2′,4′-dione trifluoroacetate salt]
Aβ aggregation inhibition (%) [1]: 45% | Inhibition of acetylcholine release [2]: 54%

Cc1cccc(N2C(=O)OC3(CN4CCC3CC4)C2=O)c1C (stereo not shown) [Compound 27, 3′-(2,3-dimethylphenyl)-quinuclidine-3-spiro-5′-oxazolidine-2′,4′-dione trifluoroacetate salt]
Aβ aggregation inhibition (%) [1]: 35% | Inhibition of acetylcholine release [2]: 25%

CC(C)c1ccccc1N1C(=O)OC2(CN3CCC2CC3)C1=O (stereo not shown) [Compound 28, 3′-(2-isopropylphenyl)-quinuclidine-3-spiro-5′-oxazolidine-2′,4′-dione trifluoroacetate salt]
Aβ aggregation inhibition (%) [1]: 0% | Inhibition of acetylcholine release [2]: 47%

COc1ccc(OC)c(N2C(=O)OC3(CN4CCC3CC4)C2=O)c1 (stereo not shown) [Compound 29, 3′-(2,5-dimethoxyphenyl)-quinuclidine-3-spiro-5′-oxazolidine-2′,4′-dione trifluoroacetate salt]
Aβ aggregation inhibition (%) [1]: 100% | Inhibition of acetylcholine release [2]: 20%

CCOC(=O)CN1C(=O)OC2(CN3CCC2CC3)C1=O (stereo not shown) [Compound 30, 3′-(2-ethoxycarbonylmethyl)-quinuclidine-3-spiro-5′-oxazolidine-2′,4′-dione hydrochloride]
Aβ aggregation inhibition (%) [1]: 100% | Inhibition of acetylcholine release [2]: 21%

COc1ccc(N2C(=N)CC3(CN4CCC3CC4)OC2=O)cc1 (stereo not shown) [Compound 100, 3′-(4-methoxyphenyl)-quinuclidine-3-spiro-4′-iminooxan-2-ones trifluoroacetate salt]
Aβ aggregation inhibition (%) [1]: 48% | Inhibition of acetylcholine release [2]: 34%

Cc1ccc(N2C(=N)CC3(CN4CCC3CC4)OC2=O)cc1 (stereo not shown) [Compound 101, 3′-(4-methylphenyl)-quinuclidine-3-spiro-4′-iminooxan-2-ones trifluoroacetate salt]
Aβ aggregation inhibition (%) [1]: 27% | Inhibition of acetylcholine release [2]: 24%

From patent publication US20070004715A1, “Novel spiro-quinuclidinyl derivatives for the treatment of central nervous system disorders” (priority 2005, published 2007)
